Experimental data taken from US20050032873A1, “3-Amino chroman and 2-amino tetralin derivatives” (Wyeth, priority 2003, published 2005).
Structures can show the parent of a compound that is named as a salt. Where two headings read alike, the source gives them in different places.

Legend:
serotonin transporter = target: T1, serotonin transporter (Rattus norvegicus, UniProt P31652); test: 5-HT transporter affinity: displacement of 3H-paroxetine from male rat cortical membranes; format: binding; settings: for Ki: displacement of 3H-paroxetine, male rat cortical membranes, read-out: 5-HT Transporter Affinity Ki
T1 construct: displace ^3H-paroxetine from male rat cortical membranes; from tissue; host or cells: male rat cortical membranes
T1 sequence (P31652 whole entry): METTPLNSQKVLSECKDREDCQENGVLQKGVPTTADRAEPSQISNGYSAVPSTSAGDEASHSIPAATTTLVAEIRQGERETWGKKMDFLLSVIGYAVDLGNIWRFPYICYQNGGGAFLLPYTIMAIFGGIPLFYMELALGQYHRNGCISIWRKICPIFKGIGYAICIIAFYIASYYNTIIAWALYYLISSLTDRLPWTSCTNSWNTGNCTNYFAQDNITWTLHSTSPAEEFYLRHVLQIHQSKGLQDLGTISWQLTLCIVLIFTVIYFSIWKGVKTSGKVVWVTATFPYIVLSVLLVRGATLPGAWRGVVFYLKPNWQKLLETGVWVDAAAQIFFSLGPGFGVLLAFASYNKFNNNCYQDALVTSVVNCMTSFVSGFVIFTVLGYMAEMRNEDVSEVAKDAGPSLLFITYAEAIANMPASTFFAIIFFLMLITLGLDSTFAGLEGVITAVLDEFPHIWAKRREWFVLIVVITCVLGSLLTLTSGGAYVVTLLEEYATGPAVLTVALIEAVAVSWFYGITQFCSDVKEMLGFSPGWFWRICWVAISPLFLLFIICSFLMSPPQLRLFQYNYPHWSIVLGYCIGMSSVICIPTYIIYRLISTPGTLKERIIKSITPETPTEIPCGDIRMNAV

[1] = target: T2, cloned human 5-HT1A receptors (Homo sapiens, UniProt P08908); test: 35S-GTPγS binding assay, 5-HT1A function; format: biochemical; settings: for EC50: agonist potency; for IC50: antagonist potency, reversal of 8-OH-DPAT, read-out: 5-HT1A Function GTPγS IC50
T2 construct: expressed in transfected cells
T2 sequence (P08908 1-422): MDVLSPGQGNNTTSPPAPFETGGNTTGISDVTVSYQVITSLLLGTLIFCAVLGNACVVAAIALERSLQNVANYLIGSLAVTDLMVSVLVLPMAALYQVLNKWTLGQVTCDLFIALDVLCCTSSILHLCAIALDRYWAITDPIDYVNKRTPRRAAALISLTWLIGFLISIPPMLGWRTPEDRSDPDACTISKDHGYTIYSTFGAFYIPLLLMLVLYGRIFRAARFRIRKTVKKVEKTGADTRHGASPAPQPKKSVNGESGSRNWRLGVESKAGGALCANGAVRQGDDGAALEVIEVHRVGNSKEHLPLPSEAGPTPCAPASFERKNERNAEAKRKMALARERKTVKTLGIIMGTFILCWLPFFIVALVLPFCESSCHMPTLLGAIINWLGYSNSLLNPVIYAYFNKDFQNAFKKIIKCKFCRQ

5-HT1A receptor [2] = target: T3, 5-HT1A receptor (Homo sapiens, UniProt P08908); test: cAMP accumulation assay, 5-HT1A function; format: cell-based; settings: for EC50: cells marked EC50 (agonist); for 5-HT1A Function cAMP (Emax) / Emax: in brackets after EC50 or IC50; for IC50: cells marked IC50 (antagonist), read-out: 5-HT1A Function cAMP IC50; for Emax: read-out: 5-HT1A Function cAMP (Emax)
T3 sequence (P08908 1-422): T2 sequence (P08908 1-422)

5-HT1A receptor [3] = target: T3, 5-HT1A receptor; test: 5-HT1A receptor affinity: displacement of [3H] 8-OH-DPAT; format: binding; set-up: expressed in transfected cells; settings: displacement of [3H] 8-OH-DPAT; CHO cells stably transfected with human 5-HT1A receptors; read-out: 5-HT1A Receptor Affinity Ki
[4] = maximum stimulatory effect, in brackets after EC50, read-out: 5-HT1A Function GTPγS (Emax)
[5] = maximum inhibitory effect, in brackets after IC50
[6] = maximum inhibitory effect, in brackets after IC50, read-out: 5-HT1A Function GTPγS (Imax)

For `CNC(=O)c1ccc(F)c2c1CC(N(CCCCc1c[nH]c3ccc(F)cc13)C1CCC1)CO2` (stereo not drawn) (as salt: hydrochloride) [Compound 95, 3-{cyclobutyl[4-(5-fluoro-1H-indol-3-yl)butyl]amino}-8-fluoro-N-methylchromane-5-carboxamide], the melting point was 123 °C (dec.).

For `NC(=O)c1ccc(F)c2c1CC(NCCc1c[nH]c3ccc(F)cc13)CO2` (stereo not drawn) (as salt: hydrochloride) [Compound 75, 8-fluoro-3-{[2-(5-fluoro-1H-indol-3-yl)ethyl]amino}chromane-5-carboxamide], the melting point was 134 °C (dec.).

For `NC(=O)c1ccc(F)c2c1CC(NCCCc1c[nH]c3ccc(F)cc13)CO2` (stereo not drawn) (as salt: hydrochloride) [Compound 1, 8-fluoro-3-{[3-(5-fluoro-1H-indol-3-yl)propyl]amino}chromane-5-carboxamide], the melting point was 122 °C (dec.).

For `CCCN(CCCc1c[nH]c2ccc(F)cc12)C1CCc2c(F)ccc(OC)c2C1` (single isomer, unassigned; (+)) (as salt: hydrochloride) [Compound 51a, (+)-5-fluoro-N-[3-(5-fluoro-1H-indol-3-yl)propyl]-8-methoxy-N-propyl-1,2,3,4-tetrahydro-2-naphthalenamine], the melting point was 117 °C (dec.).

For `COc1cccc2c1CC(N(CCCCc1c[nH]c3ccc(F)cc13)C1CCC1)CO2` (stereo not drawn) (as salt: hydrochloride) [Compound 36, N-cyclobutyl-N-[4-(5-fluoro-1H-indol-3-yl)butyl]-N-(5-methoxy-3,4-dihydro-2H-chromen-3-yl)amine], the melting point was 89 °C (dec.).

For `CNC(=O)c1ccc(F)c2c1CC(NCCCc1c[nH]c3ccc(F)cc13)CO2` (stereo not drawn) (as salt: hydrochloride) [Compound 88, 8-fluoro-3-{[3-(5-fluoro-1H-indol-3-yl)propyl]amino}-N-methylchromane-5-carboxamide], the melting point was 148 °C (dec.).

`CC(CCc1c[nH]c2ccc(F)cc12)N(CC1CC1)C1COc2c(F)ccc(C(N)=O)c2C1` (single isomer, unassigned; (+)) [Compound 15b, (+)-3-{(cyclopropylmethyl)[3-(5-fluoro-1H-indol-3-yl)-1-methylpropyl]amino}-8-fluorochromane-5-carboxamide] showed a Ki (serotonin transporter) of 46.7 nM, an EC50 [1] of 108 nM and an Emax [1, 4] of 32%. The EC50 (5-HT1A receptor [2]) was 32.4 nM, the 5-HT1A Function cAMP (Emax) (5-HT1A receptor [2]) was 73% and the Ki (5-HT1A receptor [3]) was 31.7 nM.

In the case of `NC(=O)c1ccc(F)c2c1CC(N(CCCc1c[nH]c3c(F)cc(F)cc13)C1CCC1)CO2` (single isomer, unassigned; (-)) [Compound 9a, (−)-3-{cyclobutyl[3-(5,7-difluoro-1H-indol-3-yl)propyl]amino}-8-fluorochromane-5-carboxamide], the Ki (serotonin transporter) is reported as 3.34 nM, the IC50 [1] is reported as 207 nM and the 5-HT1A Function GTPγS (Imax) [1, 5] is reported as 100%. The IC50 (5-HT1A receptor [2]) was 61.1 nM, the Emax (5-HT1A receptor [2]) was 0% and the Ki (5-HT1A receptor [3]) was 1.73 nM.

In the case of `C[C@@H](CCN(C1CCC1)[C@@H]1COc2c(F)ccc(C(N)=O)c2C1)c1c[nH]c2ccc(F)cc12` [Compound 153b, (3S)-3-{cyclobutyl[(3S)-3-(5-fluoro-1H-indol-3-yl)butyl]amino}-8-fluorochromane-5-carboxamide], the Ki (serotonin transporter) is reported as 122 nM, the IC50 [1] is reported as 1450 nM and the Emax [1, 6] is reported as 64%. It also gave an IC50 (5-HT1A receptor [2]) of 166 nM, an Emax (5-HT1A receptor [2]) of 0% and a Ki (5-HT1A receptor [3]) of 124 nM.

`CC(CCc1c[nH]c2ccc(F)cc12)N(CC1CC1)C1COc2c(F)ccc(C(N)=O)c2C1` (single isomer, unassigned; (-)) [Compound 15a, (−)-3-{(cyclopropylmethyl)[3-(5-fluoro-1H-indol-3-yl)-1-methylpropyl]amino}-8-fluorochromane-5-carboxamide] gave a Ki (serotonin transporter) of 10.2 nM, an IC50 [1] of 333 nM and an Emax [1, 6] of 100%. It also gave an IC50 (5-HT1A receptor [2]) of 72.7 nM, a 5-HT1A Function cAMP (Emax) (5-HT1A receptor [2]) of 0% and a Ki (5-HT1A receptor [3]) of 1.88 nM.

Work on `NC(=O)c1ccc(F)c2c1C[C@@H](N(CCCCc1c[nH]c3ccc(F)cc13)C1CCC1)CO2` [Compound 83a, (3R)-3-{cyclobutyl[4-(5-fluoro-1H-indol-3-yl)butyl]amino}-8-fluorochromane-5-carboxamide] yielded a Ki (serotonin transporter) of 13.2 nM, an IC50 [1] of 505 nM and an Emax [1, 6] of 100%. It also gave an IC50 (5-HT1A receptor [2]) of 173 nM, an Emax (5-HT1A receptor [2]) of 0% and a Ki (5-HT1A receptor [3]) of 3.43 nM.

In the case of `CCN(CCCc1c[nH]c2c(F)cc(F)cc12)C1COc2c(C(N)=O)ccc(F)c2C1` (stereo not drawn) [Compound 132, 3-[[3-(5,7-difluoro-1H-indol-3-yl)propyl](ethyl)amino]-5-fluorochromane-8-carboxamide], the Ki (serotonin transporter) is reported as 50.3 nM, the EC50 [1] is reported as 2210 nM and the Emax [1, 4] is reported as 98%. For the same compound, the EC50 (5-HT1A receptor [2]) was 112 nM, the Emax (5-HT1A receptor [2]) was 63% and the Ki (5-HT1A receptor [3]) was 95.6 nM.

`NC(=O)c1ccc(F)c2c1CC(NCCCc1c[nH]c3ccc(Cl)cc13)CO2` (stereo not drawn) [Compound 114, 3-{[3-(5-chloro-1H-indol-3-yl)propyl]amino}-8-fluorochromane-5-carboxamide] showed a Ki (serotonin transporter) of 69.5 nM, an EC50 [1] of 1320 nM and an Emax [1, 4] of 64%. The EC50 (5-HT1A receptor [2]) was 244 nM, the Emax (5-HT1A receptor [2]) was 67.5% and the Ki (5-HT1A receptor [3]) was 97 nM.

With `CCCN(C1COc2cccc(OC)c2C1)[C@H]1CC[C@H](c2c[nH]c3ccc(F)cc32)CC1` (relative stereo) [Compound 183, trans-N-[4-(5-fluoro-1H-indol-3-yl)cyclohexyl]-5-methoxy-N-propylchroman-3-amine] the “5-HT Transporter Affinity, % @ 1 μM” value (serotonin transporter; @ 1 μM) was 53% @ 1 μM, the EC50 [1] was 10000 nM and the Emax [1, 4] was 35%. It also gave an EC50 (5-HT1A receptor [2]) of 302 nM, an Emax (5-HT1A receptor [2]) of 65.5% and a Ki (5-HT1A receptor [3]) of 183 nM.

Compound `COC(=O)c1ccc(F)c2c1CC(N(CCCc1c[nH]c3ccc(F)cc13)C1CCC1)CO2` (stereo not drawn) [Compound 11, Methyl 3-{cyclobutyl[3-(5-fluoro-1H-indol-3-yl)propyl]amino}-8-fluorochromane-5-carboxylate] has a Ki (serotonin transporter) of 161 nM, an IC50 [1] of 345 nM and an Emax [1, 6] of 62%. It also gave an IC50 (5-HT1A receptor [2]) of 403 nM, an Emax (5-HT1A receptor [2]) of 0% and a Ki (5-HT1A receptor [3]) of 73.8 nM.

`CCCN(C(C)CCc1c[nH]c2ccc(C#N)cc12)C1COc2c(F)ccc(C(N)=O)c2C1` (single isomer, unassigned) [Compound 13c, 3-[[3-(5-cyano-1H-indol-3-yl)-1-methylpropyl](propyl)amino]-8-fluoro-3,4-dihydro-2H-chromene-5-carboxamide] showed a Ki (serotonin transporter) of 118 nM, an IC50 [1] of 2520 nM and a 5-HT1A Function GTPγS (Imax) [1, 5] of 92%. For the same compound, the IC50 (5-HT1A receptor [2]) was 316 nM, the 5-HT1A Function cAMP (Emax) (5-HT1A receptor [2]) was 0% and the Ki (5-HT1A receptor [3]) was 119 nM.

In the case of `NC(=O)c1ccc(F)c2c1CC(N(CCCc1c[nH]c3cc(F)ccc13)CC1CC1)CO2` (stereo not drawn) [Compound 52a, 3-{(cyclopropylmethyl)[3-(6-fluoro-1H-indol-3-yl)propyl]amino}-8-fluorochromane-5-carboxamide], the Ki (serotonin transporter) is reported as 163 nM, the IC50 [1] is reported as 983 nM and the Emax [1, 6] is reported as 90%. The IC50 (5-HT1A receptor [2]) was 118 nM, the Emax (5-HT1A receptor [2]) was 0% and the Ki (5-HT1A receptor [3]) was 2.37 nM.

Work on `CCCN(CC1CCc2[nH]c3ccc(F)cc3c2C1)[C@H]1COc2c(F)ccc(C(N)=O)c2C1` (single isomer, unassigned; (+)) [Compound 177b] yielded a Ki (serotonin transporter) of 181 nM, an IC50 [1] of 181 nM and a 5-HT1A Function GTPγS (Imax) [1, 5] of 74%. The IC50 (5-HT1A receptor [2]) was 36.2 nM, the 5-HT1A Function cAMP (Emax) (5-HT1A receptor [2]) was 0% and the Ki (5-HT1A receptor [3]) was 7.34 nM.

`CNC(=O)c1ccc(F)c2c1CC(N(CCCCc1c[nH]c3ccc(F)cc13)C1CCC1)CO2` (stereo not drawn) [Compound 95, 3-{cyclobutyl[4-(5-fluoro-1H-indol-3-yl)butyl]amino}-8-fluoro-N-methylchromane-5-carboxamide] showed a Ki (serotonin transporter) of 6.4 nM, an IC50 [1] of 422 nM and an Emax [1, 6] of 100%. For the same compound, the IC50 (5-HT1A receptor [2]) was 121 nM, the Emax (5-HT1A receptor [2]) was 0% and the Ki (5-HT1A receptor [3]) was 10 nM.
